Assays:
AT1 receptor = target: T1, AT1 receptor (Homo sapiens, UniProt P30556); conditions: cited from earlier work
T1 sequence (P30556 1-359): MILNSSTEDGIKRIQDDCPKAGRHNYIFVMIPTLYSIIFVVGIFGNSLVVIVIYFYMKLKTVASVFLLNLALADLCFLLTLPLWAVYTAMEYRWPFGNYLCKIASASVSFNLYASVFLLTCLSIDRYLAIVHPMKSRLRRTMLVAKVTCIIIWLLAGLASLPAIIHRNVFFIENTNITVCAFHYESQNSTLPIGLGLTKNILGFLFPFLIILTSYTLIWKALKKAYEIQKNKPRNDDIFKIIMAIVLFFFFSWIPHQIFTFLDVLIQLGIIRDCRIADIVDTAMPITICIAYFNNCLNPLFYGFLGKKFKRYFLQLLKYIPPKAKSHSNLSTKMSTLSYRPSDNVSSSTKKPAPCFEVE

[1] = cited from earlier work; for time of peak serum/plasma concentration: following oral administration; for terminal half-life: in vivo
ACE = ACE (Homo sapiens, UniProt P12821); conditions: cited from earlier work
[2] = tested on: reperfusion-induced hypertension in uninephrectomized anesthetized rats; assay: Model of acute angiotensin-mediated renal hypertension in anesthetized rats (SBP, DBP, HR); format: in vivo, rat
Protocol: Male Sprague-Dawley rats, weighing 250-300 g, were anaesthetized with pentobarbital sodium (35 mg/kg, i.p.) and placed on a thermic blanket. The temperature was maintained at 37° C. with a thermoregulator via a rectal probe. The animals were tracheotomized to facilitate spontaneous breathing. A polyethylene catheter was placed in the left jugular vein to allow for infusion of pentobarbital sodium to maintain anesthesia. The left femoral vein and artery were cannulated with polyethylene catheters to allow drugs administration and to monitor blood pressure, respectively.
Animals then underwent a left nephrectomy by excising the left kidney via a flank incision. The right kidney and renal vein, artery and ureter were then exposed via a right retroperitoneal incision, under a dissecting microscope. Silk threads were placed around both vessels and ureter. The cavity was then covered with Vaseline oil.
After 30-60 minutes of basal recordings of arterial blood pressure and heart rate the threads around the renal vessels and ureter were tied close to the renal hilum to induce complete renal ischemia of the right kidney. After 2 hours of ischemia, the threads were removed to allow renal reperfusion and urine output.
For irbesartan experiments and comparisons, control (vehicle) or drug (irbesartan (100 μg/kg), lercanidipine (7.5 μg/kg), or both lercanidipine (7.5 μg/kg) and irbesartan (100 μg/kg)) were administered intravenously at 5 min after reperfusion was begun.
Results were expressed as mean values ±S.E. (in the tables) and in percent change observed.
To evaluate the effects of drugs administration on blood pressure and heart rate within each group, two-way ANOVA and Dunnet's test were used (“within treatment”). To evaluate the statistical differences among the treatment groups, data are analyzed using a three-way ANOVA (analysis of variance) with repeated measures on factor time and pre-planned multiple comparisons. The analysis was performed using, for each treatment, delta values (log transformation). […] (“between treatments”).

[3] = tested on: reperfusion-induced hypertension in uninephrectomized anesthetized rats; assay: as above; format: in vivo, rat; remark: listed apart in the source
[4] = between treatments, three-way ANOVA on delta values, lercanidipine 7.5 μg/kg, irbesartan 100 μg/kg i.v.
[5] = irbesartan 100 μg/kg i.v., n=6, time 0 min, basal, pre-drug
[6] = irbesartan 100 μg/kg i.v., n=6, time 120 min, end of ischemia, pre-drug
[7] = irbesartan 100 μg/kg i.v., n=6, time 130 min, 5 min after drug
[8] = irbesartan 100 μg/kg i.v., n=6, time 135 min, 10 min after drug
[9] = irbesartan 100 μg/kg i.v., n=6, time 150 min, 25 min after drug
[10] = irbesartan 100 μg/kg i.v., n=6, time 165 min, 40 min after drug
[11] = irbesartan 100 μg/kg i.v., n=6, time 180 min, 55 min after drug
[12] = irbesartan 100 μg/kg i.v., n=6, time […], 5 min reperfusion, pre-drug
[13] = between treatments, three-way ANOVA on delta values, lercanidipine 10 μg/kg, valsartan 30 μg/kg i.v.
[14] = valsartan 30 μg/kg i.v., n=7, time 0 min, basal, pre-drug
[15] = valsartan 30 μg/kg i.v., n=7, time 120 min, end of ischemia, pre-drug
[16] = valsartan 30 μg/kg i.v., n=7, time 130 min, 5 min after drug
[17] = valsartan 30 μg/kg i.v., n=7, time 135 min, 10 min after drug
[18] = valsartan 30 μg/kg i.v., n=7, time 150 min, 25 min after drug
[19] = valsartan 30 μg/kg i.v., n=7, time 165 min, 40 min after drug
[20] = valsartan 30 μg/kg i.v., n=7, time 180 min, 55 min after drug
[21] = valsartan 30 μg/kg i.v., n=7, time […], 5 min reperfusion, pre-drug

Chain of ACE (P12821 30-1306, species assumed): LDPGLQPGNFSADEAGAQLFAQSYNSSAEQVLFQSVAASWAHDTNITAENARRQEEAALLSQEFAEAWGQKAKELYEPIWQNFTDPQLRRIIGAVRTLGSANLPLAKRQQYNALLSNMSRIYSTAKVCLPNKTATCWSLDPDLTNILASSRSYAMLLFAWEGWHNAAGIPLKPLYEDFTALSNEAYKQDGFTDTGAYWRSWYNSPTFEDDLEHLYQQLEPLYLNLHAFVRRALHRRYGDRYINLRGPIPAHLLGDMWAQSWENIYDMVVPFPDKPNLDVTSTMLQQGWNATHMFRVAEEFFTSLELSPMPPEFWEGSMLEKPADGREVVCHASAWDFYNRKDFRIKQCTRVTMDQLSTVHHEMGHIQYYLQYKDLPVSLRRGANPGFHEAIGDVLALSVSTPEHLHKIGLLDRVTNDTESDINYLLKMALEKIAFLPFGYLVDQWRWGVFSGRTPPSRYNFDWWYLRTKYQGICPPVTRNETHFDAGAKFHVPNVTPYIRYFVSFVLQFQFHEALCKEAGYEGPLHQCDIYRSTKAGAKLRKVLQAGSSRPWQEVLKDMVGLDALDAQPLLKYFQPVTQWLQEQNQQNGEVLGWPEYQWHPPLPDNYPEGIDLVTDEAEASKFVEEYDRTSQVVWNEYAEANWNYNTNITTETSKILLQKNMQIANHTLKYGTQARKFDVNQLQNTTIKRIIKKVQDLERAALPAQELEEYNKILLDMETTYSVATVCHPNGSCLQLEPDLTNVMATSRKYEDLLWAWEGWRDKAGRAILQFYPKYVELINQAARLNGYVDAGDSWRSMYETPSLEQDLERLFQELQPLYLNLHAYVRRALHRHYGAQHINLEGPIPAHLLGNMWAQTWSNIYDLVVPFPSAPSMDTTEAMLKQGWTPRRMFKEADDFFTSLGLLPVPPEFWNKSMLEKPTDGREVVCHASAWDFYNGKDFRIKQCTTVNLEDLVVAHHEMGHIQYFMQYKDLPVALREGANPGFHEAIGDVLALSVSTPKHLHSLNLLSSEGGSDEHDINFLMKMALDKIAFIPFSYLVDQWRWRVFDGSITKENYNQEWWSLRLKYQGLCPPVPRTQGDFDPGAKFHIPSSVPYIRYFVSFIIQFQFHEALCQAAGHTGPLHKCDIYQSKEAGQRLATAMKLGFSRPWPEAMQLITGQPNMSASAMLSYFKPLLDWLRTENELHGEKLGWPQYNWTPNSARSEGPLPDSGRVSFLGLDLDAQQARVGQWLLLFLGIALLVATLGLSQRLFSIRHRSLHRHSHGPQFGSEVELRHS

SMILES: CCOc1nc2cccc(C(=O)O)c2n1Cc1ccc(-c2ccccc2-c2nnn[nH]2)cc1 [Candesartan free acid]
- greater affinity for the AT1 receptor than the AT2 receptor (AT1 receptor): < 10,000

SMILES: CCCCc1ncc(/C=C(\Cc2cccs2)C(=O)O)n1Cc1ccc(C(=O)O)cc1 [Eprosartan, (E)-2-butyl-1 (p-carboxybenzyl)-α-2-thienylmethylimidazole-5-acrylic acid]
- time of peak serum/plasma concentration [1]: 1 to 2 h
- affinity for the AT1 receptor relative to the AT2 receptor (AT1 receptor): about 1000 times

SMILES: CCCc1nc2c(C)cc(-c3nc4ccccc4n3C)cc2n1Cc1ccc(-c2ccccc2C(=O)O)cc1 [Telmisartan, 4′-[1,4′-dimethyl-2[-propyl[2,6′-bi-1H-benzimidazol]-1′-yl)methyl]-[1,1′-biphenyl]-2-carboxylic acid]
- time of peak serum/plasma concentration [1]: 0.5 to 1 h
- administered dose eliminated unchanged in feces via biliary excretion ([1]; intravenous or oral administration): > 97%
- inhibition of ACE (ACE): does not inhibit

SMILES: CCCCc1nc(Cl)c(C(=O)O)n1Cc1ccc(-c2ccccc2-c2nn[nH]n2)cc1 [active carboxylic acid metabolite]
- time of peak serum/plasma concentration [1]: 3 to 4 h
- terminal half-life [1]: 6 to 9 h

SMILES: CCCCC1=NC2(CCCC2)C(=O)N1Cc1ccc(-c2ccccc2-c2nnn[nH]2)cc1 [irbesartan, 2-butyl-3-[[2′-(1H-tetrazol-5-yl)[1,1′-biphenyl]-4-yl]methyl]-1,3-diazaspiro[4.4]non-1-en-4-one]
- time of peak serum/plasma concentration [1]: 1.5 to 2 h
- Diastolic blood pressure: general differences among groups: p vs Vehicle [2, 4]: p < 0.05
- Heart rate differences among groups: p vs Vehicle [2, 4]: ns
- Systolic blood pressure differences among groups: p vs Vehicle [2, 4]: ns
- DBP [2, 5]: 63.8 ± 3.5 mmHg
- HR [2, 5]: 373.3 ± 14.5 beats/min
- SBP [2, 5]: 113.3 ± 6.7 mmHg
- DBP [2, 6]: 59.0 ± 2.0 mmHg
- HR [2, 6]: 360.0 ± 13.4 beats/min
- SBP [2, 6]: 112.0 ± 5.6 mmHg
- DBP [2, 7]: 86.3 ± 5.8 b mmHg
- HR [2, 7]: 341.7 ± 13.8 beats/min
- SBP [2, 7]: 134.3 ± 5.5 b mmHg
- DBP [2, 8]: 90.0 ± 5.6 b mmHg
- HR [2, 8]: 346.7 ± 13.6 beats/min
- SBP [2, 8]: 138.7 ± 5.3 b mmHg
- DBP [2, 9]: 91.7 ± 6.1 b mmHg
- HR [2, 9]: 361.7 ± 7.5 a beats/min
- SBP [2, 9]: 139.0 ± 5.7 b mmHg
- DBP [2, 10]: 85.7 ± 6.6 b mmHg
- HR [2, 10]: 363.3 ± 11.8 a beats/min
- SBP [2, 10]: 136.0 ± 7.6 b mmHg
- DBP [2, 11]: b 79.3 ± 8.1 b mmHg
- HR [2, 11]: 375.0 ± 13.1 b beats/min
- SBP [2, 11]: 125.7 ± 8.3 mmHg
- DBP [2, 12]: 107.0 ± 4.8 mmHg
- HR [2, 12]: 336.7 ± 14.1 beats/min
- SBP [2, 12]: 153.7 ± 5.1 mmHg
- effect on heart rate (in words) ([2]; lercanidipine 7.5 μg/kg, irbesartan 100 μg/kg i.v., alone or together): no statistically significant change in heart rate
- effect on blood pressure (in words) ([2]; lercanidipine 7.5 μg/kg, irbesartan 100 μg/kg i.v., alone or together, 5 min after reperfusion): statistically significant decrease in both systolic and diastolic blood pressure
- inhibition of ACE (ACE): does not inhibit
- greater affinity for AT1 receptor compared to AT2 receptor (AT1 receptor): more than 8500 fold

SMILES: CCCCc1nc(Cl)c(CO)n1Cc1ccc(-c2ccccc2-c2nnn[nH]2)cc1.[K] [losartan, 2-butyl-4-chloro-1-[p-(o-1H-tetrazol-5-ylphenyl)-benzyl]imidazole-5-methanol monopotassium salt]
- time of peak serum/plasma concentration [1]: 1 h
- terminal half-life [1]: about 2 hours
- inhibition of ACE (ACE): does not inhibit

SMILES: CCCc1nc(C(C)(C)O)c(C(=O)O)n1Cc1ccc(-c2ccccc2-c2nnn[nH]2)cc1 [olmesartan, 4-(1-hydroxy-1-methylethyl)-2-propyl-1-[p-(o-1H-tetrazol-5-ylphenyl)benzyl]imidazole-5-carboxylic acid]
- cleared in the urine ([1]; following oral administration of olmesartan): 35 to 50%
- time of peak serum/plasma concentration [1]: 1 to 2 h
- inhibition of ACE (ACE): does not inhibit

SMILES: CCCCC(=O)N(Cc1ccc(-c2ccccc2-c2nnn[nH]2)cc1)[C@H](C(=O)O)C(C)C [valsartan, N-(1-oxopentyl)-N-[[2′-(1H-tetrazol-5-yl)[1,1′-biphenyl]-4-yl]methyl]-L-valine]
- Diastolic blood pressure: general differences among groups: p vs Vehicle [3, 13]: p < 0.01
- Heart rate: general differences among groups: p vs Vehicle [3, 13]: ns
- Systolic blood pressure: general differences among groups: p vs Vehicle [3, 13]: ns
- effect on heart rate (in words) ([3]; lercanidipine 10 μg/kg, valsartan 30 μg/kg i.v., alone or together): no statistically significant modification on heart rate
- time of statistically significant decrease in diastolic blood pressure after administration ([3]; within treatment vs […], lercanidipine 10 μg/kg or valsartan 30 μg/kg i.v.): 5 to 55 min
- time of peak serum/plasma concentration [1]: 2 to 4 h
- DBP [2, 14]: 66.7 ± 4.1 mmHg
- HR [2, 14]: 372.9 ± 8.4 beats/min
- SBP [2, 14]: 126.4 ± 5.5 mmHg
- DBP [2, 15]: 62.1 ± 4.4 mmHg
- HR [2, 15]: 366.4 ± 10.9 beats/min
- SBP [2, 15]: 120.1 ± 4.3 mmHg
- DBP [2, 16]: 90.4 ± 4.4 b mmHg
- HR [2, 16]: 372.1 ± 10.0 beats/min
- SBP [2, 16]: 145.6 ± 1.7 mmHg
- DBP [2, 17]: 87.1 ± 5.2 b mmHg
- HR [2, 17]: 381.4 ± 7.3 beats/min
- SBP [2, 17]: 143.4 ± 1.0 a mmHg
- DBP [2, 18]: 81.4 ± 4.5 b mmHg
- HR [2, 18]: 382.1 ± 6.9 beats/min
- SBP [2, 18]: 136.7 ± 1.9 b mmHg
- DBP [2, 19]: 79.7 ± 4.6 b mmHg
- HR [2, 19]: 375.7 ± 7.6 beats/min
- SBP [2, 19]: 135.6 ± 4.0 b mmHg
- DBP [2, 20]: 77.3 ± 4.7 b mmHg
- HR [2, 20]: 368.6 ± 6.7 beats/min
- SBP [2, 20]: 130.0 ± 3.9 b mmHg
- DBP [2, 21]: 108.1 ± 3.8 mmHg
- HR [2, 21]: 362.1 ± 12.9 beats/min
- SBP [2, 21]: 161.0 ± 2.4 mmHg
- inhibition of ACE (ACE): does not inhibit

Source: patent publication US20040198789A1, “Lercanidipine/ARB/diuretic therapeutic combinations” (Recordati Ireland Limited, priority 2003, published 2004)
